Test results published in US6624317B1, “Taxoid conjugates as antimitotic and antitumor agents” (priority 2000, dated 2003).
Read-outs that look alike come from different tables or passages of the source.

Experiments:
[1] = tested on: epiderimoid carcinoma of the nasopharynx (KB); assay: in vitro cytotoxicity assay, KB; format: cell-based, human; settings: drug exposure 3 days
Experimental: (§1) Biological Assay. The in vitro cytotoxicity assay was carried out according to procedures described in Rubinstein et al. (P. Ferguson et al., Cancer Res. 1988, 48, 5956-5964). […] The human tumor cell line panel consisted of epiderimoid carcinoma of the nasopharynx (KB), lung carcinoma (A-549), ileocecal carcinoma (HCT-8), renal cancer (CAKI-1), breast cancer (MCF-7), melanoma cancer (SKMEL-2), and ovarian cancer (1A9). The drug resistant cell line panel consisted of three KB-derivatives, -7d, -CPT, and -VCR. The properties of these cells are described elsewhere (P. Ferguson et al., Cancer Res. 1988, 48, 5956-5964; D. Beidler et al., Cancer Res. 1996, 56, 345-353). […] They were a generous gift of Dr. P. Giannakakou (P. Giannakakou et al., J. Biol. Chem. 1997, 27, 17118-17125). Cells were cultured at 37° C. in RPMI-1640 with 100 ug/mL kanamycin and 10% (v/v) fetal bovine serum in a humidified atmosphere containing 5% CO2. Initial seeding densities varied among the cell lines to ensure a final absorbance of 1-2.5 A562 units. Drug exposure was for 3 days, and the ED50 value, the drug concentration that reduced the absorbance by 50%, was interpolated from dose-response data.

lung carcinoma (A-549) = assay: in vitro cytotoxicity assay, A549; settings: read-out: Cytotoxicity (ED50) A549
Experimental: as §1

[2] = tested on: ileocecal carcinoma (HCT-8); assay: in vitro cytotoxicity assay, HCT-8; settings: read-out: Cytotoxicity (ED50) HCT-8
Experimental: as §1

ovarian cancer (1A9) = assay: in vitro cytotoxicity assay, 1A9; settings: read-out: Cytotoxicity (ED50) 1A9 (OVCAR)
Experimental: as §1

KB-7d = assay: cytotoxicity in drug resistant cell line KB-7d; format: cell-based, human; settings: KB-7d drug resistant KB derivative
Experimental: as §1
(§2) The newly synthesized taxoid-4′-O-demethyl epipodophyllotoxin conjugates were evaluated in house using standard cytotoxicity assays in human tumor (HTCL) and drug-resistant (DRCL) cell lines. Reference compounds were paclitaxel (1), cephalomannine (2), and epipodophyllotoxins [etoposide (5) and GL-331 (7), see FIG. 1]. The HTCL panel was comprised of KB, A549, HCT-8, CAKI-1, MCF-7, SK-MEL-2, and 1A9 cell lines. Two paclitaxel-resistant 1A9 sub-lines designated as PAX-10 and PAX-22 were also tested as part of the DRCL panel. Other resistant-cell lines were KB derivatives expressing various mechanisms or multi-drug resistance as described elsewhere (P. Ferguson et al., Cancer Res. 1988, 48, 5956-5964; D. Beidler et al., Cancer Res. 1996, 56, 345-353).

KB-VCR = assay: cytotoxicity in drug resistant cell line KB-VCR; format: cell-based, human; settings: KB-VCR drug resistant KB derivative
Experimental: as §1, §2

KB-CPT = assay: cytotoxicity in drug resistant cell line KB-CPT; format: cell-based, human; settings: KB-CPT drug resistant KB derivative
Experimental: as §1, §2

PAX-10 = assay: cytotoxicity in paclitaxel-resistant 1A9 sub-line PAX-10; format: cell-based, human; settings: PAX-10 paclitaxel-resistant 1A9 sub-line
Experimental: as §1, §2

PAX-22 = assay: cytotoxicity in paclitaxel-resistant 1A9 sub-line PAX-22; format: cell-based, human; settings: PAX-22 paclitaxel-resistant 1A9 sub-line
Experimental: as §1, §2

renal cancer (CAKI-1) = assay: in vitro cytotoxicity assay, CAKI-1; settings: read-out: Cytotoxicity (ED50) CAKI-1
Experimental: as §1

breast cancer (MCF-7) = assay: in vitro cytotoxicity assay, MCF-7; settings: read-out: Cytotoxicity (ED50) MCF-7
Experimental: as §1

[3] = tested on: melanoma cancer (SKMEL-2); assay: in vitro cytotoxicity assay, SK-MEL-2; settings: read-out: Cytotoxicity (ED50) SK-MEL-2
Experimental: as §1

[4] = tested on: paclitaxel resistant cells; assay: cytotoxicity against paclitaxel resistant cells (overall); format: cell-based, human; settings: compared with the unconjugated components, Table 3
Experimental: as §1, §2

[5] = tested on: protein-linked DNA breaks (PLDB); settings: drug treated cells; earlier work; cited from earlier work
[6] = tested on: human KB and DU-145 tumor cells in nude mice; settings: earlier work; cited from earlier work
Topoisomerase II = Topoisomerase II activity assay (inhibition of topo II in vitro); format: biochemical; settings: NA^1 not active at 50 uM, NA^2 not active at 100 uM
Source text: (§3) Protein-Linked DNA Break and Topoisomerase 11 Activity Assays. The procedures were done according to detailed published methods (K. Bastow et al., Bioorg. Med. Chem. 1997, 5, 1481-1488).

[7] = tested on: Cellular protein-DNA complex formation; assay: Protein-linked DNA break assay (cellular protein-DNA complex formation); format: cell-based; settings: for Cellular protein-DNA complex formation: Etoposide given as 100, NA^1 not active at 50 uM, NA^2 not active at 100 uM
Source text: as §3

leukemia cell lines = assay: NCI human tumor cell lines, leukemia; format: cell-based; settings: average over all cell lines of the tumor type; data provided by the NCI
[8] = tested on: Non-small cell lung cancer cell lines; assay: NCI human tumor cell lines, NSCL; format: cell-based; settings: average over all cell lines of the tumor type; data provided by the NCI
Colon cell lines = assay: NCI human tumor cell lines, colon; format: cell-based; settings: average over all cell lines of the tumor type; data provided by the NCI
[9] = tested on: Central nervous system cancer cell lines; assay: NCI human tumor cell lines, CNS; format: cell-based; settings: average over all cell lines of the tumor type; data provided by the NCI
melanoma cell lines = assay: NCI human tumor cell lines, melanoma; format: cell-based; settings: average over all cell lines of the tumor type; data provided by the NCI
ovarian cell lines = assay: NCI human tumor cell lines, ovarian; format: cell-based; settings: average over all cell lines of the tumor type; data provided by the NCI
prostate cell lines = assay: NCI human tumor cell lines, prostate; format: cell-based; settings: average over all cell lines of the tumor type; data provided by the NCI
[10] = tested on: human tumor (HTCL) cell lines; assay: standard cytotoxicity assays in human tumor cell lines (HTCL panel, overall); settings: summary of Table 2
Experimental: as §1
The newly synthesized taxoid-4′-O-demethyl epipodophyllotoxin conjugates were evaluated in house using standard cytotoxicity assays in human tumor (HTCL) and drug-resistant (DRCL) cell lines. […]

[11] = A549, drug exposure 3 days, NA = not active
[12] = HCT-8, drug exposure 3 days, NA = not active
[13] = SK-MEL-2, drug exposure 3 days, NA = not active
[14] = 1A9 (OVCAR), drug exposure 3 days

Row | Structure (SMILES) | Cytotoxicity (ED50) KB [1] | EC50 (lung carcinoma (A-549); Homo sapiens, A549, 72 h) | EC50 ([2]; Homo sapiens, HCT-8, 72 h) | EC50 (ovarian cancer (1A9); Homo sapiens, 72 h) | Resistance Fold KB-7d (KB-7d) | Resistance Fold KB-VCR (KB-VCR) | Resistance Fold KB-CPT (KB-CPT) | Resistance Fold PAX-10 (PAX-10) | Resistance Fold PAX-22 (PAX-22) | EC50 (lung carcinoma (A-549); [11]) | EC50 [2, 12] | EC50 (renal cancer (CAKI-1); CAKI-1, drug exposure 3 days) | EC50 (breast cancer (MCF-7); MCF-7, drug exposure 3 days) | EC50 [3, 13] | EC50 (ovarian cancer (1A9); [14]) | Inhibition of Topo II IC100 (Topoisomerase II) | Cellular protein-DNA complex formation [7] | also measured
1 | CC(=O)O[C@H]1C(=O)[C@@]2(C)[C@H]([C@H](OC(=O)c3ccccc3)[C@]3(O)C[C@H](OC(=O)[C@H](O)[C@@H](NC(=O)c4ccccc4)c4ccccc4)C(C)=C1C3(C)C)[C@]1(OC(C)=O)CO[C@@H]1C[C@@H]2O [Paclitaxel, paclitaxel, reference compound] | 16 nM | 6 nM | 13 nM | 2 nM | 1 | 15 | 1 | 24 | 24 |  |  |  |  |  |  |  |  | 
2 | C/C=C(\C)C(=O)N[C@@H](c1ccccc1)[C@@H](OC(=O)c1ccc(C=Nc2ccc(N[C@@H]3c4cc5c(cc4[C@@H](c4cc(OC)c(O)c(OC)c4)[C@H]4C(=O)OC[C@@H]43)OCO5)cc2)cc1)C(=O)O[C@H]1C[C@@]2(O)[C@@H](OC(=O)c3ccccc3)[C@@H]3[C@]4(OC(C)=O)CO[C@@H]4C[C@H](O)[C@@]3(C)C(=O)[C@H](OC(C)=O)C(=C1C)C2(C)C [Compound 16] | 1400 nM |  |  |  |  |  |  | 7.5 |  | 3550 nM | > 40000 nM | > 10000 nM | > 5000 nM | > 40000 nM | 1120 nM |  |  | activity against paclitaxel resistant cells (in words) [4]: enhanced activity against paclitaxel resistant cells
3 | CC[C@@]1(O)C(=O)OCc2c1cc1n(c2=O)Cc2c-1nc1ccccc1c2C=Nc1ccc(N[C@@H]2c3cc4c(cc3[C@@H](c3cc(OC)c(O)c(OC)c3)[C@H]3C(=O)OC[C@@H]32)OCO4)cc1 [Compound 3] |  |  |  |  |  |  |  |  |  |  |  |  |  |  |  |  |  | induction of protein-linked DNA breaks (PLDB) (in words) [5]: induced protein-linked DNA breaks (PLDB) in a concentration dependent manner; in vivo antitumor activity (in words) [6]: more active than either etoposide or CPT
4 | C/C=C(\C)C(=O)N[C@@H](c1ccccc1)[C@@H](O)C(=O)O[C@H]1C[C@@]2(O)[C@@H](OC(=O)c3ccccc3)[C@@H]3[C@]4(OC(C)=O)CO[C@@H]4C[C@H](O)[C@@]3(C)C(=O)[C@H](OC(C)=O)C(=C1C)C2(C)C [Cephalomannine, cephalomannine, reference compound] | 2 nM | 9 nM | 47 nM | 3 nM |  |  |  | 40 |  |  |  |  |  |  |  |  |  | EC50 (renal cancer (CAKI-1); Homo sapiens, CAKI-1, 72 h): > 300 nM; EC50 (breast cancer (MCF-7); Homo sapiens, MCF7, 72 h): 167 nM; EC50 ([3]; Homo sapiens, SK-MEL-2, 72 h): 134 nM
5 | COc1cc([C@@H]2c3cc4c(cc3[C@@H](O[C@@H]3O[C@@H]5CO[C@@H](C)O[C@H]5[C@H](O)[C@H]3O)[C@H]3COC(=O)[C@H]23)OCO4)cc(OC)c1O [Etoposide, etoposide, reference compound] | 200 nM | 1950 nM | > 5000 nM | 600 nM | 119 | 153 | 1 | >16 | >16 |  |  |  |  |  |  | 100 µM | 100% | EC50 (renal cancer (CAKI-1); Homo sapiens, CAKI-1, 72 h): 2200 nM; EC50 (breast cancer (MCF-7); Homo sapiens, MCF7, 72 h): > 5000 nM
6 | COc1cc([C@@H]2c3cc4c(cc3[C@@H](Nc3ccc(N=Cc5ccc(C(=O)O[C@@H](C(=O)O[C@H]6C[C@@]7(O)[C@@H](OC(=O)c8ccccc8)[C@@H]8[C@]9(OC(C)=O)CO[C@@H]9C[C@H](O)[C@@]8(C)C(=O)[C@H](OC(C)=O)C(=C6C)C7(C)C)[C@@H](NC(=O)c6ccccc6)c6ccccc6)cc5)cc3)[C@H]3COC(=O)[C@H]23)OCO4)cc(OC)c1O [Compound 15] | 230 nM |  |  |  | 1 | 8 | 1 | >17 | 8 | 2800 nM | > 100 nM | > 4000 nM | 1860 nM | > 40000 nM | 300 nM | 100 µM | 25 +/− 11% | log GI50 leukemia (leukemia cell lines): −6.02; log GI50 NSCL [8]: −5.50; log GI50 Colon (Colon cell lines): −5.12; log GI50 CNS [9]: −5.54; log GI50 melanoma (melanoma cell lines): −5.01; log GI50 ovarian (ovarian cell lines): −4.95; log GI50 prostate (prostate cell lines): −5.06; intracellular poisoning / stimulation of protein-DNA breaks in cells (in words) ([7]; in cells): intracellular poisons; cytotoxicity in human tumor cell lines (in words) [10]: exhibited different cytotoxic activity from both precursors; activity against paclitaxel resistant cells (in words) [4]: enhanced activity against paclitaxel resistant cells
7 | COc1cc([C@@H]2c3cc4c(cc3[C@@H](Nc3ccc([N+](=O)[O-])cc3)[C@H]3COC(=O)[C@H]23)OCO4)cc(OC)c1O [GL-331, reference compound] | 1860 nM |  |  |  | 2 | 3 | 1 | 13 | 8 | 480 nM | 3380 nM | 1800 nM | 9290 nM | 5950 nM | 200 nM | 50 µM | 134 +/− 7% | 
8 | CC[C@@]1(O)C(=O)OCc2c1cc1n(c2=O)Cc2c-1nc1ccccc1c2C=Nc1ccccc1N[C@@H]1c2cc3c(cc2[C@@H](c2cc(OC)c(O)c(OC)c2)[C@H]2C(=O)OC[C@@H]21)OCO3 [Compound 4] |  |  |  |  |  |  |  |  |  |  |  |  |  |  |  |  |  | induction of protein-linked DNA breaks (PLDB) (in words) [5]: induced protein-linked DNA breaks (PLDB) in a concentration dependent manner
9 | C/C=C(\C)C(=O)N[C@@H](c1ccccc1)[C@@H](OC(=O)c1ccc(C=N[C@@H]2c3cc4c(cc3[C@@H](c3cc(OC)c(O)c(OC)c3)[C@H]3C(=O)OC[C@@H]32)OCO4)cc1)C(=O)O[C@H]1C[C@@]2(O)[C@@H](OC(=O)c3ccccc3)[C@@H]3[C@]4(OC(C)=O)CO[C@@H]4C[C@H](O)[C@@]3(C)C(=O)[C@H](OC(C)=O)C(=C1C)C2(C)C [Compound 14] | 30 nM |  |  |  |  |  |  | >36 |  | 700 nM | 2780 nM | > 5000 nM | 1230 nM | 8900 nM | 140 nM |  |  | 
